Laboratory results from US8247211B2, “Glycopeptide antibiotics” (American Cyanamid Company, priority 2001, dated 2012).
≈ marks a conversion by molar mass, not a printed value. Blank lines part the entries; values can stand above or below the compound they belong to.

Tests used:
Experiment in all cases: In vitro antibacterial evaluation: minimum inhibitory concentration (MIC), broth dilution method
Format in all cases: cell-based
Streptococcus sp. = system: Streptococcus sp.
Protocol: (§1) The minimum inhibitory concentration (MIC), the lowest concentration of the antibiotic which inhibits growth of the test organism, is determined by the broth dilution method using Muller-Hinton II […] (Baltimore Biological Laboratories) following the recommendations of the National Committee for Clinical Laboratory Standards [Methods for dilution antimicrobial susceptibility tests for bacteria that grow aerobically, approved standard M7-A2, National Committee for Clinical Laboratory Standards, Villanova, Pa].
(§2) An inoculum level of 5×10^5 CFU/mL, and a range of antibiotic concentrations (64-0.06 μg/mL) is used. […] The test organisms include a spectrum of Gram-positive bacteria comprised of Staphylococcus sp., Streptococcus sp. and Enterococcus sp. These organisms include recent clinical isolates that are resistant to methicillin, penicillin and/or vancomycin.

Enterococcus sp. = conditions: for MIC Enterococcus faecalis (ATCC 29212): strain ATCC 29212; for MIC Enterococcus faecium (GC 2243): strain GC 2243; for MIC Enterococcus faecalis (GC 4552): strain GC 4552; for MIC Enterococcus faecalis (GC 4553): strain GC 4553; for MIC Enterococcus faecalis (GC 4554): strain GC 4554; for MIC Enterococcus faecium (GC 4556): strain GC 4556; for MIC Enterococcus faecium (GC 4557): strain GC 4557; for MIC Enterococcus avium (GC 4558): strain GC 4558; for MIC Enterococcus faecalis (GC 6189): strain GC 6189
Protocol: as §1, §2

Escherichia coli = conditions: for MIC Escherichia coli (ATCC 25922): strain ATCC 25922; for MIC Escherichia coli (GC 4559): strain GC 4559; for MIC Escherichia coli (GC 4560): strain GC 4560
Protocol: as §1, §2

Staphylococcus sp. = conditions: for MIC Staphylococcus aureus (ATCC 29213) / MIC Staphylococcus aureus (GC 1131) / MIC Staphylococcus aureus (GC 3051) / MIC Staphylococcus aureus (GC 3053) / MIC Staphylococcus aureus (GC 4541) / MIC Staphylococcus aureus (GC 4542) / MIC Staphylococcus aureus (GC 4544) / MIC Staphylococcus aureus (GC 4545) / MIC Staphylococcus aureus-SMITH (GC 4543): 18 hours at 35° C.
Protocol: as §1, §2

[1] = Streptococcus agalactiae (GC 4564), broth dilution, 18 hours at 35° C.
[2] = Streptococcus pneumoniae (ATCC 6301), broth dilution, 18 hours at 35° C.
[3] = Streptococcus pneumoniae (GC 1894), broth dilution, 18 hours at 35° C.
[4] = Streptococcus pneumoniae (GC 4565), broth dilution, 18 hours at 35° C.
[5] = Streptococcus pyogenes (GC 4563), broth dilution, 18 hours at 35° C.
[6] = Enterococcus faecalis (GC 2242), broth dilution, 18 hours at 35° C.
[7] = Enterococcus faecalis (GC 2691), broth dilution, 18 hours at 35° C.
[8] = Enterococcus faecalis (GC 3059), broth dilution, 18 hours at 35° C.
[9] = strain SMITH GC 4543, broth dilution

MIC Streptococcus agalactiae (GC 4564) (Streptococcus sp.; [1]): 1 µg/mL (≈ 0.662 µM)
MIC Streptococcus pneumoniae (ATCC 6301) (Streptococcus sp.; [2]): 1 µg/mL (≈ 0.662 µM)
MIC Streptococcus pneumoniae (GC 1894) (Streptococcus sp.; [3]): 0.12 µg/mL (≈ 0.0794 µM)
MIC Streptococcus pneumoniae (GC 4565) (Streptococcus sp.; [4]): 1 µg/mL (≈ 0.662 µM)
MIC Streptococcus pyogenes (GC 4563) (Streptococcus sp.; [5]): 0.5 µg/mL (≈ 0.331 µM)
MIC Streptococcus pneumoniae (ATCC 6301) (Streptococcus sp.; strain ATCC 6301): 1 µg/mL (≈ 0.662 µM)
MIC Streptococcus pneumoniae (GC 1894) (Streptococcus sp.; strain GC 1894): 0.12 µg/mL (≈ 0.0794 µM)
MIC Streptococcus pyogenes (GC 4563) (Streptococcus sp.; strain GC 4563): 0.5 µg/mL (≈ 0.331 µM)
MIC Streptococcus agalactiae (GC 4564) (Streptococcus sp.; strain GC 4564): 1 µg/mL (≈ 0.662 µM)
MIC Streptococcus pneumoniae (GC 4565) (Streptococcus sp.; strain GC 4565): 1 µg/mL (≈ 0.662 µM)
MIC Enterococcus faecalis (GC 2242) (Enterococcus sp.; [6]): 8 µg/mL (≈ 5.29 µM)
MIC Enterococcus faecalis (GC 2691) (Enterococcus sp.; [7]): 8 µg/mL (≈ 5.29 µM)
MIC Enterococcus faecalis (GC 3059) (Enterococcus sp.; [8]): 8 µg/mL (≈ 5.29 µM)
MIC Enterococcus faecalis (ATCC 29212) (Enterococcus sp.): 8 µg/mL (≈ 5.29 µM)
MIC Enterococcus faecalis (GC 2242) (Enterococcus sp.; strain GC 2242): 8 µg/mL (≈ 5.29 µM)
MIC Enterococcus faecium (GC 2243) (Enterococcus sp.): 4 µg/mL (≈ 2.65 µM)
MIC Enterococcus faecalis (GC 2691) (Enterococcus sp.; strain GC 2691): 8 µg/mL (≈ 5.29 µM)
MIC Enterococcus faecalis (GC 3059) (Enterococcus sp.; strain GC 3059): 8 µg/mL (≈ 5.29 µM)
MIC Enterococcus faecalis (GC 4552) (Enterococcus sp.): 8 µg/mL (≈ 5.29 µM)
MIC Enterococcus faecalis (GC 4553) (Enterococcus sp.): 8 µg/mL (≈ 5.29 µM)
MIC Enterococcus faecalis (GC 4554) (Enterococcus sp.): 16 µg/mL (≈ 10.6 µM)
MIC Enterococcus faecium (GC 4556) (Enterococcus sp.): 8 µg/mL (≈ 5.29 µM)
MIC Enterococcus faecium (GC 4557) (Enterococcus sp.): 1 µg/mL (≈ 0.662 µM)
MIC Enterococcus avium (GC 4558) (Enterococcus sp.): 8 µg/mL (≈ 5.29 µM)
MIC Enterococcus faecalis (GC 6189) (Enterococcus sp.): 8 µg/mL (≈ 5.29 µM)
MIC Escherichia coli (ATCC 25922) (Escherichia coli): >64 µg/mL
MIC Escherichia coli (GC 4559) (Escherichia coli): 64 µg/mL (≈ 42.3 µM)
MIC Escherichia coli (GC 4560) (Escherichia coli): 4 µg/mL (≈ 2.65 µM)
MIC Staphylococcus aureus (ATCC 29213) (Staphylococcus sp.; broth dilution): 8 µg/mL (≈ 5.29 µM)
MIC Staphylococcus aureus (GC 1131) (Staphylococcus sp.; broth dilution): 8 µg/mL (≈ 5.29 µM)
MIC Staphylococcus aureus (GC 3051) (Staphylococcus sp.; broth dilution): 8 µg/mL (≈ 5.29 µM)
MIC Staphylococcus aureus (GC 3053) (Staphylococcus sp.; broth dilution): 8 µg/mL (≈ 5.29 µM)
MIC Staphylococcus aureus (GC 4541) (Staphylococcus sp.; broth dilution): 4 µg/mL (≈ 2.65 µM)
MIC Staphylococcus aureus (GC 4542) (Staphylococcus sp.; broth dilution): 8 µg/mL (≈ 5.29 µM)
MIC Staphylococcus aureus (GC 4544) (Staphylococcus sp.; broth dilution): 8 µg/mL (≈ 5.29 µM)
MIC Staphylococcus aureus (GC 4545) (Staphylococcus sp.; broth dilution): 8 µg/mL (≈ 5.29 µM)
MIC Staphylococcus aureus-SMITH (GC 4543) (Staphylococcus sp.; [9]): 4 µg/mL (≈ 2.65 µM)
SMILES: CCCCCCN=C1NCC(C(O)C2NC(=O)C(C(O)C3CNC(=N)N3)NC(=O)C(Cc3ccc(OC4OC(CO)C(OC5OC6COC7(OC6C(O)C5O)C5CC6CC(C5)CC7C6)C(O)C4O)cc3)NC(=O)C(C(C)c3ccccc3)NC(=O)CNC(=O)C(CO)NC2=O)N1C1OC(CO)C(O)C(O)C1O (centres unmarked) [Example 84]

MIC Streptococcus agalactiae (GC 4564) (Streptococcus sp.; [1]): >64 µg/mL
MIC Streptococcus pneumoniae (ATCC 6301) (Streptococcus sp.; [2]): >64 µg/mL
MIC Streptococcus pneumoniae (GC 1894) (Streptococcus sp.; [3]): >64 µg/mL
MIC Streptococcus pneumoniae (GC 4565) (Streptococcus sp.; [4]): >64 µg/mL
MIC Streptococcus pyogenes (GC 4563) (Streptococcus sp.; [5]): >64 µg/mL
MIC Streptococcus pneumoniae (ATCC 6301) (Streptococcus sp.; strain ATCC 6301): >64 µg/mL
MIC Streptococcus pneumoniae (GC 1894) (Streptococcus sp.; strain GC 1894): >64 µg/mL
MIC Streptococcus pyogenes (GC 4563) (Streptococcus sp.; strain GC 4563): >64 µg/mL
MIC Streptococcus agalactiae (GC 4564) (Streptococcus sp.; strain GC 4564): >64 µg/mL
MIC Streptococcus pneumoniae (GC 4565) (Streptococcus sp.; strain GC 4565): >64 µg/mL
MIC Enterococcus faecalis (GC 2242) (Enterococcus sp.; [6]): >64 µg/mL
MIC Enterococcus faecalis (GC 2691) (Enterococcus sp.; [7]): >64 µg/mL
MIC Enterococcus faecalis (GC 3059) (Enterococcus sp.; [8]): >64 µg/mL
MIC Enterococcus faecalis (ATCC 29212) (Enterococcus sp.): >64 µg/mL
MIC Enterococcus faecalis (GC 2242) (Enterococcus sp.; strain GC 2242): >64 µg/mL
MIC Enterococcus faecium (GC 2243) (Enterococcus sp.): >64 µg/mL
MIC Enterococcus faecalis (GC 2691) (Enterococcus sp.; strain GC 2691): >64 µg/mL
MIC Enterococcus faecalis (GC 3059) (Enterococcus sp.; strain GC 3059): >64 µg/mL
MIC Enterococcus faecalis (GC 4552) (Enterococcus sp.): >64 µg/mL
MIC Enterococcus faecalis (GC 4553) (Enterococcus sp.): >64 µg/mL
MIC Enterococcus faecalis (GC 4554) (Enterococcus sp.): >64 µg/mL
MIC Enterococcus faecium (GC 4556) (Enterococcus sp.): >64 µg/mL
MIC Enterococcus faecium (GC 4557) (Enterococcus sp.): >64 µg/mL
MIC Enterococcus avium (GC 4558) (Enterococcus sp.): >64 µg/mL
MIC Enterococcus faecalis (GC 6189) (Enterococcus sp.): >64 µg/mL
MIC Escherichia coli (ATCC 25922) (Escherichia coli): >64 µg/mL
MIC Escherichia coli (GC 4559) (Escherichia coli): >64 µg/mL
MIC Escherichia coli (GC 4560) (Escherichia coli): 64 µg/mL (≈ 41 µM)
MIC Staphylococcus aureus (ATCC 29213) (Staphylococcus sp.; broth dilution): >64 µg/mL
MIC Staphylococcus aureus (GC 1131) (Staphylococcus sp.; broth dilution): >64 µg/mL
MIC Staphylococcus aureus (GC 3051) (Staphylococcus sp.; broth dilution): >64 µg/mL
MIC Staphylococcus aureus (GC 3053) (Staphylococcus sp.; broth dilution): >64 µg/mL
MIC Staphylococcus aureus (GC 4541) (Staphylococcus sp.; broth dilution): >64 µg/mL
MIC Staphylococcus aureus (GC 4542) (Staphylococcus sp.; broth dilution): >64 µg/mL
MIC Staphylococcus aureus (GC 4544) (Staphylococcus sp.; broth dilution): >64 µg/mL
MIC Staphylococcus aureus (GC 4545) (Staphylococcus sp.; broth dilution): >64 µg/mL
MIC Staphylococcus aureus-SMITH (GC 4543) (Staphylococcus sp.; strain GC 4543): >64 µg/mL
MIC Coagulase Negative Staphylococcus (GC 4547) (Staphylococcus sp.; strain GC 4547): >64 µg/mL
MIC Coagulase Negative Staphylococcus (GC 4548) (Staphylococcus sp.; strain GC 4548): >64 µg/mL
MIC Coagulase Negative Staphylococcus (GC 4549) (Staphylococcus sp.; strain GC 4549): >64 µg/mL
MIC Coagulase Negative Staphylococcus (GC 4551) (Staphylococcus sp.; strain GC 4551): >64 µg/mL
MIC Staphylococcus aureus-SMITH (GC 4543) (Staphylococcus sp.; [9]): >64 µg/mL
SMILES: CC(c1ccccc1)C1NC(=O)CNC(=O)C(CO)NC(=O)C(C(O)C2CN(c3nc4ccccc4s3)C(=N)N2C2OC(CO)C(O)C(O)C2O)NC(=O)C(C(O)C2CNC(=Nc3nc4ccccc4s3)N2)NC(=O)C(Cc2ccc(OC3OC(CO)C(OC4OC(CO)C(O)C(O)C4O)C(O)C3O)cc2)NC1=O (stereo not drawn) [Example 94, Cyclo[glycyl-β-methylphenylalanyl-O-(4-O-hexopyranosylhexopyranosyl)tyrosyl-3-[2-(1,3-benzothiazol-2-ylimino)imidazolidin-4-yl]seryl-3-[1-(1,3-benzo-thiazol-2-yl)-2-imino-3-hexonyranosylimidazolidin-4-yl]serylseryl]]
MIC Staphylococcus haemolyticus (GC 4546) (Staphylococcus sp.; strain GC 4546): >64 µg/mL
